Measured values as given in patent US9920063B2, “Melampomagnolide B derivatives” (Board of Trustees of the University of Arkansas, priority 2013, dated 2018).
Like-named read-outs stand apart in the source and are kept apart here.

Columns and labels:
AML 052308 cells [1] = assay: Antileukemic activity against AML 052308 cells in culture; conditions: for Fold more potent than parthenolide: AML 052308 cells
Description: (§1) For each compound, in vitro cell culture studies were performed in which a range of concentrations (0.25-20 μM) was tested for cytotoxicity against leukemia cell lines, primary leukemia specimens and normal bone marrow controls.

M9 ENL cells [2] = system: M9 ENL cells
Description: (§2) Carbamate and carbonate derivatives of MMB were also screened for activity against M9 ENL cells at concentrations of 5, 10 and 20 μM (FIG. 10). […] Additionally, succinic amide derivatives of MMB were screened for activity against M9 ENL cells at concentrations of 5, 10 and 20 μM (FIG. 11).
(§3) Ester and amide derivatives of melampomagnolide B were screened for anti-leukemic activity against M9ENL AML cell lines (FIG. 12; FIG. 14; FIG. 15; FIG. 16). For each compound, in vitro cell culture studies were performed in which a range of concentrations (0.25-20 μM) was tested for cytotoxicity against leukemia cell lines, primary leukemia specimens and normal bone marrow controls.

cord blood cells = assay: Toxicity against cord blood cells; assay type: cell-based
[3] = system: AML 100510 primary isolate; assay: Antileukemic activity against AML 100510 primary isolate
Description: as §1

[4] = system: AML 123009 primary isolate; assay: Antileukemic activity against AML 123009 primary isolate
Description: as §1

AML 052308 cells [5] = system: AML 052308 cells
Description: as §1

M9 ENL cells [6] = assay: cells; conditions: 24 h
Description: as §2, §3

SMILES | Fold more potent than parthenolide (AML 052308 cells [1]) | EC50 (AML 052308 cells [1]; AML 052308 cells in culture) [nM] | Antileukemic activity compared to MMB (M9 ENL cells [2]; M9 ENL cell line) | EC50 (cord blood cells) [nM] | Antileukemic activity compared to MMB [3] | Antileukemic activity compared to MMB [4] | Fold more cytotoxic than MMB (AML 052308 cells [5]) | EC50 (AML 052308 cells [1]) [nM] | EC50 (M9 ENL cells [6]) [nM] | EC50 (M9 ENL cells [2]; M9ENL AML cell lines, 24 hours of drug exposure) [nM]
C=C1C(=O)O[C@H]2[C@H]1CC/C(COC(=O)/C=C/c1c[nH]c3ccccc13)=C\CC[C@@]1(C)O[C@@H]21 [BS-2-04] | 10 fold | 720 | good anti-leukemic activity compared to parent compound MMB | 750 | good anti-leukemic activity compared to parent compound MMB | good anti-leukemic activity compared to parent compound MMB | about 22 fold | – | – | –
C=C1C(=O)O[C@H]2[C@H]1CC/C(COC(=O)c1ccc3cc[nH]c3c1)=C\CC[C@@]1(C)O[C@@H]21 [BS-2-05] | around 3 fold | – | – | – | – | – | around 7 fold | 2500 | 2500 | –
C=C1C(=O)O[C@H]2[C@H]1CC/C(COC(=O)Cc1c[nH]c3ccccc13)=C\CC[C@@]1(C)O[C@@H]21 [BS-2-32] | around 3 fold | 4000 | – | – | – | – | around 7 fold | – | – | 4000
